# Where two headings read alike, the source gives them in different places.
# What was measured:
# Assay type in all cases: in vivo, human
# [1] = LTI-291-003: NeuroCart, MMSE, MDS-UPDRS, EEG; conditions: 10, 30, 60 mg daily for 28 days, GBA-PD
# Protocol: GluCer, GluSph, and LacCer were measured in plasma, PBMCs, and CSF as biomarkers of pharmacological effects. The pharmacodynamic evaluations also consisted of a battery of NeuroCart assessments (Saccadic Eye Movements, Smooth Pursuit Eye Movements, Adaptive Tracking, Body Sway, and Visual Verbal Learning Test); functional outcome measures (MDS-UPDRS Part III, and the MMSE); and pharmaco-EEG.
# [2] = BIA 28-6156-110 DDI, metformin portion; conditions: after 6 days of dosing with 60 mg, metformin portion
# Protocol: In Cohort 2, a single oral dose 500 mg metformin was administered alone on Day 1. From Day 2 to Day 7, a single daily dose of 60 mg Compound A was administered.
# [3] = LTI-291-002 multiple ascending dose study: plasma and CSF pharmacokinetics
# Protocol: This study was a phase 1, randomized, double-blind, placebo-controlled, multiple ascending dose study of Compound A in 4 cohorts of middle-aged to elderly healthy participants (aged 52 to 75 years). […] A total of 39 healthy subjects were enrolled in 4 sequential cohorts. Subjects in each cohort received once-daily oral doses of 3 mg (n=7), 10 mg (n=8), 30 mg (n=8), or 60 mg (n=8) Compound A or placebo (n=8) for 14 days. Pharmacokinetic parameters were determined for each dose at Day 1, Day 7, and Day 14. Cerebrospinal fluid samples for Compound A concentrations were measured before the first dose and 4 hours after the last dose for each dose level. GluCer, glucosyl sphingosine (GluSph), and lactosyl-ceramide (LacCer) were measured in plasma, PBMCs, and CSF as biomarkers of pharmacological effects. Pharmacodynamic measurements consisted of battery of CNS (NeuroCart®) assessments including Saccadic Eye Movements, Smooth Pursuit Eye Movements, Adaptive Tracking, Body Sway, Visual Verbal Learning Test, and pharmaco-EEG.
# [4] = 3 mg daily, dose 1, geometric mean
# [5] = 3 mg daily, dose 7, geometric mean
# [6] = 3 mg daily, dose 14, geometric mean
# [7] = 10 mg daily, dose 1, geometric mean
# [8] = 10 mg daily, dose 7, geometric mean
# [9] = 10 mg daily, dose 14, geometric mean
# [10] = 30 mg daily, dose 1, geometric mean
# [11] = 30 mg daily, dose 7, geometric mean
# [12] = 30 mg daily, dose 14, geometric mean
# [13] = 60 mg daily, dose 1, geometric mean
# [14] = 60 mg daily, dose 7, geometric mean
# [15] = 60 mg daily, dose 14, geometric mean
# [16] = human, plasma, oral, 3 mg, 3 mg daily, dose 1, geometric mean
# [17] = human, plasma, oral, 3 mg, 3 mg daily, dose 7, geometric mean
# [18] = human, plasma, oral, 3 mg, 3 mg daily, dose 14, geometric mean
# [19] = human, plasma, oral, 10 mg, 10 mg daily, dose 1, geometric mean
# [20] = human, plasma, oral, 10 mg, 10 mg daily, dose 7, geometric mean
# [21] = human, plasma, oral, 10 mg, 10 mg daily, dose 14, geometric mean
# [22] = human, plasma, oral, 30 mg, 30 mg daily, dose 1, geometric mean
# [23] = human, plasma, oral, 30 mg, 30 mg daily, dose 7, geometric mean
# [24] = human, plasma, oral, 30 mg, 30 mg daily, dose 14, geometric mean
# [25] = human, plasma, oral, 60 mg, 60 mg daily, dose 1, geometric mean
# [26] = human, plasma, oral, 60 mg, 60 mg daily, dose 7, geometric mean
# [27] = human, plasma, oral, 60 mg, 60 mg daily, dose 14, geometric mean
compound,measurement,setting,value
"CCCCCO[C@H]1CC[C@H](NC(=O)c2cnn3c(C)cc(C)nc23)CC1 [Compound A, 5,7-dimethyl-N-((1S*,4S)-4-(pentyloxy)cyclohexyl)pyrazolo[1,5-a]pyrimidine-3-carboxamide]","effects on NeuroCart tests, MMSE, MDS-UPDRS, EEG",[1],no dose-dependent effects
same,steady state concentrations of Compound A,[2],appeared not to have been reached
same,AUC0-inf/dose,[3]; [4],818 ng·h/mL/mg
same,Cmax/dose,[3]; [4],29.7 ng/mL/mg
same,AUC0-inf/dose,[3]; [5],1570 ng·h/mL/mg
same,Accumulation Index,[3]; [5],2.45
same,Cavg,[3]; [5],80.1 ng/mL
same,Cmax/dose,[3]; [5],47.2 ng/mL/mg
same,AUC0-inf/dose,[3]; [6],2520 ng·h/mL/mg
same,Accumulation Index,[3]; [6],2.78
same,Cavg,[3]; [6],115 ng/mL
same,Cmax/dose,[3]; [6],51.0 ng/mL/mg
same,Fluctuation,[3]; [6],52.9%
same,AUC0-inf/dose,[3]; [7],613 ng·h/mL/mg
same,Cmax/dose,[3]; [7],30.7 ng/mL/mg
same,AUC0-inf/dose,[3]; [8],1780 ng·h/mL/mg
same,Accumulation Index,[3]; [8],2.29
same,Cavg,[3]; [8],322 ng/mL
same,Cmax/dose,[3]; [8],50.5 ng/mL/mg
same,AUC0-inf/dose,[3]; [9],1860 ng·h/mL/mg
same,Accumulation Index,[3]; [9],2.49
same,Cavg,[3]; [9],313 ng/mL
same,Cmax/dose,[3]; [9],49.3 ng/mL/mg
same,Fluctuation,[3]; [9],76.0%
same,AUC0-inf/dose,[3]; [10],753 ng·h/mL/mg
same,Cmax/dose,[3]; [10],29.0 ng/mL/mg
same,AUC0-inf/dose,[3]; [11],1890 ng·h/mL/mg
same,Accumulation Index,[3]; [11],2.11
same,Cavg,[3]; [11],1100 ng/mL
same,Cmax/dose,[3]; [11],53.3 ng/mL/mg
same,AUC0-inf/dose,[3]; [12],4620 ng·h/mL/mg
same,Accumulation Index,[3]; [12],5.22
same,Cavg,[3]; [12],1090 ng/mL
same,Cmax/dose,[3]; [12],50.0 ng/mL/mg
same,Fluctuation,[3]; [12],58.1%
same,AUC0-inf/dose,[3]; [13],655 ng·h/mL/mg
same,Cmax/dose,[3]; [13],32.6 ng/mL/mg
same,AUC0-inf/dose,[3]; [14],2310 ng·h/mL/mg
same,Accumulation Index,[3]; [14],2.72
same,Cavg,[3]; [14],2170 ng/mL
same,Cmax/dose,[3]; [14],53.2 ng/mL/mg
same,AUC0-inf/dose,[3]; [15],2160 ng·h/mL/mg
same,Accumulation Index,[3]; [15],2.53
same,Cavg,[3]; [15],2120 ng/mL
same,Cmax/dose,[3]; [15],51.2 ng/mL/mg
same,Fluctuation,[3]; [15],67.6%
same,total exposure (Cmax and AUC0-24) versus dose,"[3]; 3 to 60 mg, after 1st, 7th and 14th dose",increase in a dose proportional manner
same,Kp at 4 h,"[3]; human, CSF and plasma, oral, after the 14th daily dose, across dose levels, read-out: CSF-to-plasma concentration ratio, mean",0.0122 to 0.0128
same,half-life,"[3]; human, in vivo, oral, multiple doses, read-out: t½ after multiple doses in Trial LTI-291-002",25 to 35 h
same,AUC(0-inf),[3]; [16],2450 ng·h/mL
same,Cmax,[3]; [16],89.1 ng/mL
same,AUC(0-t),"[3]; human, plasma, oral, 3 mg, 3 mg daily, dose 1, geometric mean, read-out: AUC0-24",1050 ng·h/mL
same,AUC(0-t),"[3]; human, plasma, oral, 3 mg, 3 mg daily, dose 1, geometric mean, read-out: AUC0-last",1040 ng·h/mL
same,half-life,"[3]; human, plasma, oral, 3 mg, 3 mg daily, dose 1, geometric mean, read-out: t½ (converted)",27.9 h
same,AUC(0-inf),[3]; [17],4720 ng·h/mL
same,Cmax,[3]; [17],142 ng/mL
same,AUC(0-t),"[3]; human, plasma, oral, 3 mg, 3 mg daily, dose 7, geometric mean, read-out: AUC0-24",1920 ng·h/mL
same,AUC(0-t),"[3]; human, plasma, oral, 3 mg, 3 mg daily, dose 7, geometric mean, read-out: AUC0-last",2420 ng·h/mL
same,half-life,"[3]; human, plasma, oral, 3 mg, 3 mg daily, dose 7, geometric mean, read-out: t½ (converted)",31.3 h
same,AUC(0-inf),[3]; [18],7560 ng·h/mL
same,Cmax,[3]; [18],153 ng/mL
same,AUC(0-t),"[3]; human, plasma, oral, 3 mg, 3 mg daily, dose 14, geometric mean, read-out: AUC0-24",2770 ng·h/mL
same,AUC(0-t),"[3]; human, plasma, oral, 3 mg, 3 mg daily, dose 14, geometric mean, read-out: AUC0-last",4510 ng·h/mL
same,half-life,"[3]; human, plasma, oral, 3 mg, 3 mg daily, dose 14, geometric mean, read-out: t½ (converted)",36.5 h
same,AUC(0-inf),[3]; [19],6130 ng·h/mL
same,Cmax,[3]; [19],307 ng/mL
same,AUC(0-t),"[3]; human, plasma, oral, 10 mg, 10 mg daily, dose 1, geometric mean, read-out: AUC0-24",3410 ng·h/mL
same,AUC(0-t),"[3]; human, plasma, oral, 10 mg, 10 mg daily, dose 1, geometric mean, read-out: AUC0-last",3380 ng·h/mL
same,half-life,"[3]; human, plasma, oral, 10 mg, 10 mg daily, dose 1, geometric mean, read-out: t½ (converted)",20.7 h
same,AUC(0-inf),[3]; [20],17800 ng·h/mL
same,Cmax,[3]; [20],505 ng/mL
same,AUC(0-t),"[3]; human, plasma, oral, 10 mg, 10 mg daily, dose 7, geometric mean, read-out: AUC0-24",7730 ng·h/mL
same,AUC(0-t),"[3]; human, plasma, oral, 10 mg, 10 mg daily, dose 7, geometric mean, read-out: AUC0-last",7820 ng·h/mL
same,half-life,"[3]; human, plasma, oral, 10 mg, 10 mg daily, dose 7, geometric mean, read-out: t½ (converted)",28.7 h
same,AUC(0-inf),[3]; [21],18600 ng·h/mL
same,Cmax,[3]; [21],493 ng/mL
same,AUC(0-t),"[3]; human, plasma, oral, 10 mg, 10 mg daily, dose 14, geometric mean, read-out: AUC0-24",7510 ng·h/mL
same,AUC(0-t),"[3]; human, plasma, oral, 10 mg, 10 mg daily, dose 14, geometric mean, read-out: AUC0-last",11900 ng·h/mL
same,half-life,"[3]; human, plasma, oral, 10 mg, 10 mg daily, dose 14, geometric mean, read-out: t½ (converted)",32.1 h
same,AUC(0-inf),[3]; [22],22600 ng·h/mL
same,Cmax,[3]; [22],869 ng/mL
same,AUC(0-t),"[3]; human, plasma, oral, 30 mg, 30 mg daily, dose 1, geometric mean, read-out: AUC0-24",10600 ng·h/mL
same,AUC(0-t),"[3]; human, plasma, oral, 30 mg, 30 mg daily, dose 1, geometric mean, read-out: AUC0-last",10400 ng·h/mL
same,half-life,"[3]; human, plasma, oral, 30 mg, 30 mg daily, dose 1, geometric mean, read-out: t½ (converted)",26 h
same,AUC(0-inf),[3]; [23],56800 ng·h/mL
same,Cmax,[3]; [23],1600 ng/mL
same,AUC(0-t),"[3]; human, plasma, oral, 30 mg, 30 mg daily, dose 7, geometric mean, read-out: AUC0-24",26500 ng·h/mL
same,AUC(0-t),"[3]; human, plasma, oral, 30 mg, 30 mg daily, dose 7, geometric mean, read-out: AUC0-last",26300 ng·h/mL
same,half-life,"[3]; human, plasma, oral, 30 mg, 30 mg daily, dose 7, geometric mean, read-out: t½ (converted)",25.7 h
same,AUC(0-inf),[3]; [24],139000 ng·h/mL
same,Cmax,[3]; [24],1500 ng/mL
same,AUC(0-t),"[3]; human, plasma, oral, 30 mg, 30 mg daily, dose 14, geometric mean, read-out: AUC0-24",26200 ng·h/mL
same,AUC(0-t),"[3]; human, plasma, oral, 30 mg, 30 mg daily, dose 14, geometric mean, read-out: AUC0-last",45000 ng·h/mL
same,half-life,"[3]; human, plasma, oral, 30 mg, 30 mg daily, dose 14, geometric mean, read-out: t½ (converted)",75 h
same,AUC(0-inf),[3]; [25],39300 ng·h/mL
same,Cmax,[3]; [25],1950 ng/mL
same,AUC(0-t),"[3]; human, plasma, oral, 60 mg, 60 mg daily, dose 1, geometric mean, read-out: AUC0-24",19600 ng·h/mL
same,AUC(0-t),"[3]; human, plasma, oral, 60 mg, 60 mg daily, dose 1, geometric mean, read-out: AUC0-last",19200 ng·h/mL
same,half-life,"[3]; human, plasma, oral, 60 mg, 60 mg daily, dose 1, geometric mean, read-out: t½ (converted)",25.1 h
same,AUC(0-inf),[3]; [26],139000 ng·h/mL
same,Cmax,[3]; [26],3190 ng/mL
same,AUC(0-t),"[3]; human, plasma, oral, 60 mg, 60 mg daily, dose 7, geometric mean, read-out: AUC0-24",52100 ng·h/mL
same,AUC(0-t),"[3]; human, plasma, oral, 60 mg, 60 mg daily, dose 7, geometric mean, read-out: AUC0-last",50300 ng·h/mL
same,half-life,"[3]; human, plasma, oral, 60 mg, 60 mg daily, dose 7, geometric mean, read-out: t½ (converted)",35.8 h
same,AUC(0-inf),[3]; [27],130000 ng·h/mL
same,Cmax,[3]; [27],3070 ng/mL
same,AUC(0-t),"[3]; human, plasma, oral, 60 mg, 60 mg daily, dose 14, geometric mean, read-out: AUC0-24",50900 ng·h/mL
same,AUC(0-t),"[3]; human, plasma, oral, 60 mg, 60 mg daily, dose 14, geometric mean, read-out: AUC0-last",82000 ng·h/mL
same,half-life,"[3]; human, plasma, oral, 60 mg, 60 mg daily, dose 14, geometric mean, read-out: t½ (converted)",32.9 h
same,half-life,"[3]; human, plasma, oral, after the 1st dose, across dose levels, read-out: mean t1/2",20.7 to 27.9 h
same,half-life,"[3]; human, plasma, oral, after the 7th dose, across dose levels, read-out: mean t1/2",25.7 to 35.8 h
same,half-life,"[3]; human, plasma, oral, after the 14th dose, across dose levels, read-out: mean t1/2",32.1 to 75 h
same,steady-state conditions,[3]; once-daily dosing,achieved by the 7th daily dose
